Measured values from patent publication US20210355106A1, “NEW AMINO-PYRIMIDONYL-PIPERIDINYL DERIVATIVES, A PROCESS FOR THEIR PREPARATION AND PHARMACEUTICAL COMPOSITIONS CONTAINING THEM” (LES LABORATOIRES SERVIER, priority 2018, published 2021).

Legend:
USP7 = target: T1, USP7 (Homo sapiens, UniProt Q93009, C315A); assay: Inhibition of USP7 by Fluorescence Intensity (FLINT) readings, Ubiquitin-Rhodamine-110 substrate; assay type: biochemical; details: 0.25 nM His-His-USP7 (aa208-560), 60 minutes at 30° C. preincubation; Ki determined from IC50 according to Cer et al.
T1 construct: 0.25 nM His-His-USP7 (aa208-560, |C315A|) was incubated with compound; His-His (N)
T1 sequence (Q93009 208-560 C315A): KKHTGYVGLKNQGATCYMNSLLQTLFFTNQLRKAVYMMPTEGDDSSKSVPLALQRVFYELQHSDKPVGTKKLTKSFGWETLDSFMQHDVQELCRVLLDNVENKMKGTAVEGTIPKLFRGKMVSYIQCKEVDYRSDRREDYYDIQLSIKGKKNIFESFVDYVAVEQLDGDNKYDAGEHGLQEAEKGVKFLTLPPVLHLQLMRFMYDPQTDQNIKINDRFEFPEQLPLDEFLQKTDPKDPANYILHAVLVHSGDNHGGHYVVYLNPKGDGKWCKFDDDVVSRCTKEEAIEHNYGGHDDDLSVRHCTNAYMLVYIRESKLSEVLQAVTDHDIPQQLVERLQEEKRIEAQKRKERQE
How it was run: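 His-tagged USP7 (aa208-560, C315A), 0.25 nM, preincubated with compound 60 min at 30 °C in 100 mM Bicine pH 8.0, 0.01% Triton X-100, 1 mM TCEP, 10% DMSO. Ubiquitin-Rhodamine-110 (50 nM or 4 μM) added; kinetic fluorescence (Ex 485/Em 535 nm) over 21 min; IC50 from 11-point curves, Ki derived from IC50.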

[1] = tested on: Z138 mantle cell lymphoma tumour cell lines; assay: In vitro cytotoxicity, MTT assay; assay type: cell-based; details: Z138 cells, exposed to the test compounds for 96 hours
How it was run: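 Z138 cells exposed to compounds for 96 hours, then MTT added for 4 hours. Formazan absorbance at 540 nm serves as the measure of viable cell number.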

Row | SMILES | Ki (USP7) | IC50 ([1]; Homo sapiens, Z-138) | IC50 [1]
1 | Nc1c(Oc2ccc(F)cc2)ncn(CC2(O)CCN(C(=O)[C@@H]3CCN(C(=O)Nc4ccc(F)cc4)C[C@H]3c3ccccc3)CC2)c1=O [Example 84, (3R,4R)-4-[4-[[5-amino-4-(4-fluorophenoxy)-6-oxo-pyrimidin-1-yl]methyl]-4-hydroxy-piperidine-1-carbonyl]-N-(4-fluorophenyl)-3-phenyl-piperidine-1-carboxamide] | 21 nM | 18 nM | –
2 | Nc1c(Oc2ccc(F)cc2)ncn(CC2(O)CCN(C(=O)[C@@H]3CCN(C(=O)c4cncc(-c5ccccc5)c4)C[C@H]3c3ccccc3)CC2)c1=O [Example 35, 5-amino-6-(4-fluorophenoxy)-3-({4-hydroxy-1-[(3R,4R)-3-phenyl-1-(5-phenylpyridine-3-carbonyl)piperidine-4-carbonyl]piperidin-4-yl}methyl)pyrimidin-4(3H)-one] | 11.3 nM | 5 nM | –
3 | COc1cc(Oc2ncn(C[C@@]3(O)CCN(C(=O)[C@@H]4CCN(Cc5cccnn5)C[C@H]4c4ccccc4)CC3(F)F)c(=O)c2N)ccc1F [Example 214] | 48.3 nM | 31.3 nM | –
4 | Nc1c(Oc2ccc(F)cc2)ncn(CC2(O)CCN(C(=O)[C@@H]3CCN(C(=O)c4cscn4)C[C@H]3c3ccccc3)CC2)c1=O [Example 28, 5-amino-6-(4-fluorophenoxy)-3-[[4-hydroxy-1-[(3R,4R)-3-phenyl-1-thiazole-4-carbonyl)piperidine-4-carbonyl-4-piperidyl]methyl]pyrimidin-4-one] | 64.1 nM | 138 nM | –
5 | Nc1c(Oc2ccc(F)cc2)ncn(CC2(O)CCN(C(=O)[C@@H]3CCN(C(=O)Nc4ccccc4)C[C@H]3c3ccccc3)CC2)c1=O [Example 76, (3R,4R).4-[4-[[5-amino-4-(4-fluorophenoxy)-6-oxo-pyrimidin-1-yl]methyl]-4-hydroxy-piperidine-1-carbonyl]-N,3-diphenyl-piperidine-1-carboxamide] | 17 nM | 22 nM | –
6 | Cc1nc(N2CCCC2)sc1C(=O)N1CC[C@@H](C(=O)N2CCC(O)(Cn3cnc(Oc4ccc(F)cc4)c(N)c3=O)CC2)[C@H](c2ccccc2)C1 [Example 65, 5-amino-6-(4-fluorophenoxy)-3-[(4-hydroxy-1-{(3R,4R)-1-[4-methyl-2-(pyrrolidin-1-yl)-1,3-thiazole-5-carbonyl]-3-phenylpiperidine-4-carbonyl]piperidin-4-yl)methyl]pyrimidin-4(3H)-one] | 4.2 nM | 7.66 nM | –
7 | Nc1c(Oc2ccc(F)cc2)ncn(CC2(O)CCN(C(=O)[C@@H]3CCN(C(=O)Nc4nc5ccccc5s4)C[C@H]3c3ccccc3)CC2)c1=O [Example 87, (3R,4R)-4-[4-[[5-amino-4-(4-fluorophenoxy)-6-oxo-pyrimidin-1-yl]methyl]-4-hydroxy-piperidine-1-carbonyl]-N-(1,3-benzothiazol-2-yl)-3-phenyl-piperidine-1-carboxamide] | 88 nM | 45 nM | –
8 | COc1cc(Oc2ncn(C[C@@]3(O)CCN(C(=O)[C@@H]4CCN(Cc5cncc(C)n5)C[C@H]4c4ccccc4)CC3(F)F)c(=O)c2N)ccc1F [Example 218, 5-amino-3-[[(4S)-3,3-difluoro-4-hydroxy-1-[(3R,4R)-1-[(6-methylpyrazin-2-yl)methyl]-3-phenyl-piperidine-4-carbonyl]-4-piperidyl]methyl]-6-(4-fluoro-3-methoxy-phenoxy)pyrimidin-4-one] | 30.1 nM | 11.5 nM | –
9 | Nc1c(Oc2ccc(F)cc2)ncn(CC2(O)CCN(C(=O)[C@@H]3CCN(C(=O)c4sc(Br)c5c4OCCO5)C[C@H]3c3ccccc3)CC2)c1=O [Example 67] | 14 nM | – | 27.8 nM
10 | CCOC(=O)C(c1ccccc1)N1CC[C@@H](C(=O)N2CCC(O)(Cn3cnc(Oc4ccc(F)cc4)c(N)c3=O)CC2)[C@H](c2ccccc2)C1 (some centres unmarked) [Example 70] | 63 nM | 34 nM | –

The next lines start with results.

Row | Ki (USP7) | SMILES | IC50 ([1]; Homo sapiens, Z-138) | IC50 [1]
11 | 6.6 nM | Cc1ccc(-c2ncc(CN3CC[C@@H](C(=O)N4CC[C@](O)(Cn5cnc(Oc6ccc(F)cc6)c(N)c5=O)C(F)(F)C4)[C@H](c4ccccc4)C3)s2)cn1 [Example 53] | 3.4 nM | –
12 | 42 nM | Nc1c(Oc2ccc(F)cc2)ncn(CC2(O)CCN(C(=O)[C@@H]3CCN(C(=O)Nc4cccc(Br)c4)C[C@H]3c3ccccc3)CC2)c1=O [Example 83] | 8.5 nM | –
13 | 19 nM | Cc1nccc(CN2CC[C@@H](C(=O)N3CC[C@](O)(Cn4cnc(Oc5ccc(Cl)c(F)c5)c(N)c4=O)C(F)(F)C3)[C@H](c3ccccc3)C2)n1 [Example 147] | 48.7 nM | –
14 | 23.9 nM | Cc1cnc(CN2CC[C@@H](C(=O)N3CC[C@](O)(Cn4cnc(Oc5ccc(F)cc5)c(N)c4=O)C(F)(F)C3)[C@H](c3ccccc3)C2)cn1 [Example 201] | 7.5 nM | –
15 | 9.9 nM | Cc1ccc(-c2cccc(NC(=O)N3CC[C@@H](C(=O)N4CCC(O)(Cn5cnc(Oc6ccc(F)cc6)c(N)c5=O)CC4)[C@H](c4ccccc4)C3)c2)cn1 [Example 85, (3R,4R)-4-[4-[[5-amino-4-(4-fluorophenoxy)-6-oxo-pyrimidin-1-yl]methyl]-4-hydroxy-piperidine-1-carbonyl]-N-[3-(6-methyl-3-pyridyl)phenyl]-3-phenyl-piperidine-1-carboxamide] | 34 nM | –
16 | 7.21 nM | Cc1ccc(-c2ncc(C(=O)N3CC[C@@H](C(=O)N4CCC(O)(Cn5cnc(Oc6ccc(F)cc6)c(N)c5=O)CC4)[C@H](c4ccccc4)C3)n2C)cn1 [Example 96, 5-amino-6-(4-fluorophenoxy)-3-[(4-hydroxy-1-{(3R,4R)-1-[1-methyl-2-(6-methylpyridin-3-yl)-1H-imidazole-5-carbonyl]-3-phenylpiperidine-4-carbonyl}piperidin-4-yl)methyl]pyrimidin-4(3H)-one] | 27.3 nM | –
17 | 11.1 nM | Cc1nc(C2CC(F)(F)C2)sc1C(=O)N1CC[C@@H](C(=O)N2CCC(O)(Cn3cnc(Oc4ccc(F)cc4)c(N)c3=O)CC2)[C@H](c2ccccc2)C1 [Example 189] | 6.34 nM | –
18 | 81.2 nM | COc1cc(Cl)cc(Oc2ncn(C[C@@]3(O)CCN(C(=O)[C@@H]4CCN(Cc5ccnc(C)n5)C[C@H]4c4ccccc4)CC3(F)F)c(=O)c2N)c1 [Example 175, 5-amino-6-(3-chloro-5-methoxy-phenoxy)-3-[[(4S)-3,3-difluoro-4-hydroxy-1-[(3R,4R)-1-[(2-methylpyrimidin-4-yl)methyl]-3-phenyl-piperidine-4-carbonyl]-4-piperidyl]methyl]pyrimidin-4-one] | 26.5 nM | –
19 | 45 nM | Cc1ccccc1C1(N2CC[C@@H](C(=O)N3CCC(O)(Cn4cnc(Oc5ccc(F)cc5)c(N)c4=O)CC3)[C@H](c3ccccc3)C2)COC1 [Example 138] | 24 nM | –
20 | 6.42 nM | Cc1nc(-c2ccc(N(C)C)nc2)sc1C(=O)N1CC[C@@H](C(=O)N2CCC(O)(Cn3cnc(Oc4ccc(F)cc4)c(N)c3=O)CC2)[C@H](c2ccccc2)C1 [Example 43, 5-amino-3-({1-[(3R,4R)-1-{2-[16-(dimethylamino)pyridin-3-yl-4-methyl-1,3-thiazole-5-carbonyl}-3-phenylpiperidine-4-carbonyl]-4-hydroxypiperidin-4-yl]}methyl)-6-(4-fluorophenoxy)pyrimidin-4(3H)-one] | 1.2 nM | –
21 | 28.4 nM | Nc1c(Oc2ccc(F)cc2)ncn(CC2(O)CCN(C(=O)[C@@H]3CCN(S(=O)(=O)c4ccccc4)C[C@H]3c3ccccc3)CC2)c1=O [Example 30, 5-amino-3-({1-[(3R,4R)-1-(benzenesulfonyl)-3-phenyl-piperidine-4-carbonyl]A-hydroxy-4-piperidyl]methyl]-6-(4-fluorophenoxy)pyrimidin-4-one] | 9.1 nM | –
22 | 8.8 nM | Cc1nc(C2CCOCC2)sc1C(=O)N1CC[C@@H](C(=O)N2CC[C@](O)(Cn3cnc(Oc4ccc(F)cc4)c(N)c3=O)C(F)(F)C2)[C@H](c2ccccc2)C1 [Example 192, 5-amino-3-[[(4S)-3,3-difluoro-4-hydroxy-1-[(3R,4R)-1-(4-methyl-2-tetrahydropyran-4-yl-thiazole-5-carbonyl)-3-phenyl-piperidine-4-carbonyl]-4-piperidyl]methyl]-6-(4-fluorophenoxy)pyrimidin-4-one] | 8.48 nM | –
23 | 44 nM | Nc1c(Oc2ccc(F)cc2)ncn(CC2(O)CCN(C(=O)[C@@H]3CCN(C(=O)Nc4cccc(C(F)(F)F)c4)C[C@H]3c3ccccc3)CC2)c1=O [Example 81, (3R,4R)-4-(4-{15-amino-4-(4-fluorophenoxy)-6-oxopyrimidin-[(6H)-yl]methyl}-4-hydroxypiperidine-1-carbonyl)-3-phenyl-N-[3-(trifluoromethyl)phenyl]piperidine-1-carboxamide] | 5.1 nM | –
24 | 17.7 nM | Cc1nc(C2CCOCC2)sc1C(=O)N1CC[C@@H](C(=O)N2CCC(O)(Cn3cnc(Oc4ccc(F)cc4)c(N)c3=O)CC2)[C@H](c2ccccc2)C1 [Example 191, 5-amino-6-(4-fluorophenoxy)-3-[[4-hydroxy-1-[(3R,4R)-1-(4-methyl-2-tetrahydropyran-4-yl-thiazole-5-carbonyl)-3-phenyl-piperidine-4-carbonyl]-4-piperidyl]methyl]pyrimidin-4-one] | 20.1 nM | –
25 | 1.52 nM | Nc1c(Oc2ccc(F)cc2)ncn(CC2(O)CCN(C(=O)[C@@H]3CCN(C(=O)c4cncc(Cl)c4)C[C@H]3c3ccccc3)CC2)c1=O [Example 133, 5-amino-3-[[1-[(3R,4R)-1-(5-chloropyridine-3-carbonyl)-3-phenyl-piperidine-4-carbonyl]-4-hydroxy-4-piperidyl]methyl]-6-(4-fluorophenoxy)pyrimidin-4-one] | 9.8 nM | –
